Data from publication PMC8861431, “Tissue Pharmacokinetic Properties and Bystander Potential of Hypoxia-Activated Prodrug CP-506 by Agent-Based Modelling” (Frontiers in Pharmacology, 2022).
Where two headings read alike, the source gives them in different places. Values belong to the compound of their own block, whether it stands above or below them.

Columns and labels:
[1] = ref Hicks et al., 2007; Foehrenbacher et al., 2013a, 2013b; cited from earlier work
[2] = ref Guise et al., 2010; cited from earlier work
[3] = Media stability studies (stirred medium without serum, 37°C); format: physicochemical; conditions: for half-life at 100 µM: 37°C, aerobic, medium without serum/cells, read-out: Half-life (T1/2) in stirred medium
Procedure: The stability of each compound was determined in stirred medium (without serum) maintained under aerobic conditions by the constant supply of a humidified gas mixture comprised of 21% O2, 5% CO2 with balance N2. Vials were spiked with 100 µM of the relevant compound, and samples were collected using a positive displacement pipettor for up to 3 h thereafter. The collected samples were then treated with two-volumes of ice-cold acetonitrile containing 2 µM of the relevant deuterated (D8) internal standard and stored at −80°C until LC-MS/MS analysis.
(§1) The LC system for tandem MS consisted of an Agilent 1200 autosampler (4°C) and binary pump, a 3.0 × 50 mm, 1.8-micron Zorbax SB-C18 column (Agilent; PN: 827975-302) and 2.1 × 7 mm guard column (Alltech, IL) maintained at 35°C, at a pressure of <400 bar and flow rate of 0.3 ml/min. The mobile phase comprised a gradient of 0.01% formic acid in 80% acetonitrile - 20% water, v/v (solvent A), and 0.01% formic acid in water (solvent B). Initial mobile phase composition was 20% solvent A and 80% solvent B, increasing to 60% A (0–3 min) then 80% A (3–5.45 min), returning to initial conditions (5.5–6 min). Post-run time was 1 min, and the total run time was […]. Mass spectrometric detection was carried out using an Agilent 6410 triple quadrupole mass spectrometer equipped with a multimode ionization (MMI) source. The mass spectrometer was operated in electrospray positive ionization mode using multiple reaction monitoring (MRM), with Q1 & Q3 set to unit resolution ([…]). The electrospray ionization parameters, optimized for the parent molecular ion ([M+H]+) abundance were: drying gas temperature 325°C, vaporiser temperature 150°C, drying gas flow 5 L/min, nebuliser pressure 50 psi, capillary voltage 1.8 kV, Delta EMV 300 V. Ultra-pure nitrogen was used as collision gas. The divert valve feature of the Agilent 6410 triple quadrupole mass spectrometer was utilised to prevent the eluate from entering the ionisation source chamber during the first 0.5 min of each run. For CP-506 samples, positively charged ions representing the [M+H]+ for CP-506 and CP-506-D8 were collisionally dissociated to form specific product ions which were monitored in MS2 (unit resolution). The MRM transition, ionization mode, collision energy, dwell time, fragmentor voltage and retention time for all compounds is provided in Supplementary Table S2. Agilent MassHunter software (v.4.04.00) was used for data acquisition and chromatographic peak integration.

[4] = test system: HCT-116 cells (PORko-G, HCT-116 WT, POR-R); assay: Cellular metabolism assay (LC-MS/MS of reduced metabolites); format: in vitro ADME, human; conditions: anoxic cultures
Procedure: Aerobic and anoxic conditions were achieved as described above. Cells (5 x 10^5 per well) were seeded with 350 µl medium in duplicate into 24-well plates and left to attach for 2 h in a humidified 37°C incubator. A working solution of CP-506 was prepared in culture medium to achieve a 100 µM concentration in each well after the addition of a 500 µl volume. Plates were exposed to drug for 1 h in a humidified 37°C incubator. Metabolism was then halted by the addition of two-volumes of ice-cold acetonitrile containing 2 µM of internal standard for each analyte. Samples were stored at −80°C until LC-MS/MS analysis.
as §1

HCT-116 cell line panel = assay: Anti-proliferative IC50 assay of authentic CP-506 metabolites; format: cell-based, human
Procedure: Cells (700–1,000 per well) were seeded with 100 µl culture medium into 96-well plates and left to attach for 2 h in a humidified 37°C incubator. Compounds were prepared in culture medium and serially diluted (1:3) in the well volume. […] Aerobic experiments were performed under standard tissue culture conditions (21% O2), and the anoxic experiments were performed in parallel in a 5% H2/Pd catalyst anaerobic chamber (Shellab Bactron, Sheldon manufacturing Inc., Cornelius, OR) using pre-equilibrated media and plasticware. All anoxia experiments were conducted using a catalyst-scrubbed anaerobic chamber, unless otherwise specified, with gas oxygen measurements of <1 ppm O2. Cells were then washed three times and left to grow for 96 h before cell density determination using a sulforhodamine B (SRB) assay ([Vichai and Kirtikara, 2006]). To this end, the cells were fixed by layering 50 µl of trichloroacetic acid (40% w/v in MilliQ water) on top of the culture media (150 µl) in each well for 1 h at 4°C. Plates were rinsed under running tap water and stained with 50 µl of SRB (0.4% w/v in MilliQ water containing 1% v/v acetic acid) for 30 min at room temperature. Plates were rapidly destained by rinsing three times in tap water containing 1% (v/v) acetic acid. The stain was solubilized by adding 100 µl of 10 mM unbuffered Tris base to each well with gentle rocking for 1 h. Plates were read on a Biotek ELx808 Absorbance Microplate Reader at 490 nm using KC4 software. The IC50 value (concentration required to reduce staining to 50% of the untreated control on the same plate) for each compound was determined by interpolation using a 4-parameter logistic regression model.
FIGURE 3 Hypoxia-dependent metabolism of CP-506 leads to the formation of a multitude of short-lived species with variable cytotoxicity. (A) Bioreductive metabolism of CP-506 under normoxic (21% O2) and anoxic conditions (<1 ppm O2). Concentrations of CP-506 and its metabolites (CP-506H, CP-506M and CP-506M-Cl2) were quantified by mass spectrometry with reference to the appropriate deuterated (D8) internal standard. Values are the mean ± SEM for three independent experiments. (B) Stability of CP-506 metabolites in culture medium (without cells) at 37°C. Concentrations were determined by mass spectrometry using standard curves generated from authenticated stocks. […] IC50 values are the mean ± SEM of duplicate wells for three independent experiments. T-tests were performed using GraphPad Prism 8 (ns, p-value > 0.05; *, p-value ≤ 0.05; **, p-value ≤ 0.01; ***, p-value ≤ 0.001).

POR-R MCLs = conditions: established value for the internal standard; ref Wilson et al., 2004; cited from earlier work
[5] = stirred medium without serum or cells

Structure (SMILES): CS(=O)(=O)OCCN(CCBr)c1c(C(=O)NCCO)cc([N+](=O)[O-])cc1[N+](=O)[O-] [PR-104A, reference compound]
KO2 (O2 concentration of half-maximal activation) [1]: 0.126 µM O2
Safe human exposure levels as percent of those observed in mice [2]: 10–29%

half-life at 100 µM [3, 5]: 0.0417 h
Detection of metabolite in anoxic cultures [4]: undetectable
Structure (SMILES): CCN1CCN(C(=O)c2cc(N(CCO)CCO)c(S(C)(=O)=O)cc2NO)CC1 [CP-506H-(OH)2, (5-(Bis(2-hydroxyethyl)amino)-2-(hydroxyamino)-4-(methylsulfonyl)phenyl)(4-ethylpiperazin-1-yl)methanone]

half-life at 100 µM [3, 5]: 6.56 h
Structure (SMILES): CCN1CCN(C(=O)c2cc(N(CCO)CCO)c(S(C)(=O)=O)cc2N)CC1 [CP-506M-(OH)2, (2-Amino-5-(bis(2-hydroxyethyl)amino)-4-(methylsulfonyl)phenyl)(4-ethylpiperazin-1-yl)methanone]
Concentration up to which the cell line panel was not sensitive (HCT-116 cell line panel; Figure 3C): > 100 µM

Structure (SMILES): CCN1CCN(C(=O)c2cc(N(CCCl)CCCl)c(S(C)(=O)=O)cc2NO)CC1 [CP-506H-Cl2, (5-(Bis(2-chloroethyl)amino)-2-(hydroxyamino)-4-(methylsulfonyl)phenyl)(4-ethylpiperazin-1-yl)methanone]
half-life at 100 µM [3]: 2.35 h
Fold longer half-life than CP-506H or CP-506M ([3]; stirred medium, Figure 3B): ≥ 10 fold
Anti-proliferative IC50 of metabolite (HCT-116 cell line panel; direct exposure of monolayers to authentic metabolite, Figure 3C: 5 days, normoxic 21% O2): limited potency

Structure (SMILES): N[14C](N)=O [[^14C]-urea]
DMCL in HCT-116 MCLs (POR-R MCLs): 3.67 x 10^−7 cm^2 s^−1
